One experiment relates to PNH erythrocytes. Description: CAP-mediated hemolysis assay with PNH erythrocytes (subject A). The class given is cell-based, human. The conditions noted are these: for Inhibition (%) of CAP activity: Compound 1 0 μM. The protocol: Complement-preserved normal human serum (NHS) from an individual donor of ABO blood group type AB (NHS-AB) was purchase from BioreclamationIVT (Westbury, NY). Gelatin veronal buffer (GVB), pH 7.3, without Ca^++ and Mg^++ (GVB^0) and 100 mM MgCl2 +100 mM EGTA (MgEGTA) were obtained from Complement Technology Inc. (Tyler, TX).
GVB^0·MgEGTA was prepared by mixing GVB^0 and 100 mM MgEGTA in a 9:1 ratio. PNH erythrocytes were used within five days of blood collection; before assay cells were collected by centrifugation at 800×g and 4° C. for 3 minutes and resuspended in fresh cold GVB^0·MgEGTA to a density of 5×10^8 cells/mL.
50 μL of NHS-AB was added to each well. The plates were mixed and incubated at room temperature for 5 minutes. 24 μL of this NHS-AB with compound was then transferred to duplicate wells of V-bottom microtiter plates each containing 76 μL GVB0·MgEGTA. 20 μL PNH erythrocytes was then added to each well and the plates were sealed, mixed, and incubated at 37° C. for 30 minutes with an added shaking for 15 minutes. […] Following incubation, PNH cells were removed by centrifugation at 800×g and 4° C. for 3 minutes, 100 μL supernatant per well was transferred to flat-bottom clear microtiter plates, and A405 of the supernatant was measured in a Molecular Devices Spectramax Plus plate reader.
Combinatorial interactions were analyzed via two methods.
Inhibition was analyzed by the method of Prichard and Shipman (Prichard, M. N. and C. Shipman, Jr. A Three-Dimensional Model to Analyze Drug-Drug Interactions. Antiviral Research 1990, 14:181-205) Three-dimensional surface graphs of each experiment were generated and analyzed using an Excel spreadsheet program adapted from the MacSynergy II spreadsheet (University of Alabama, Birmingham, AL). The X-axis and Y-axis of each surface graph represent the concentrations of the two test compounds, and the Z-axis represents the difference between measured inhibition and a theoretically determined additive inhibition. For an additive relationship, the surface graph resembles a horizontal plane at Z=0, whereas positive surface peaks indicate greater inhibition than expected and therefore synergy, and negative surface peaks indicate less inhibition than expected and therefore antagonism.
Synergy and antagonism volumes were calculated separately as the summed volumes of peaks respectively above and below the Z=0 plane. Volumes were determined using 95% confidence limits to assure significance.
Inhibition was analyzed by the method of Chou and Talalay (Chou, T.-C. and P. Talalay. Analysis of Combined Drug Effects: A New Look at a Very Old Problem. Trends Pharmacol. Sci. 1983, 4:450-454; Chou, T. C. Theoretical basis, experimental design, and computerized simulation of synergism and antagonism in drug combination studies. Pharmacological Reviews 2006, 58:621-681). Analysis using the median-effect equation of Chou and Talalay was performed with CompuSyn software (ComboSyn, Inc, Paramus, NJ). […] Combination index (CI) values were determined at inhibition values of 50%, 75%, and 90%.

In experiment [1] the test system is C3 fragment deposition on rabbit erythrocytes. Description: C3 fragment deposition on rabbit erythrocytes (flow cytometry). The class given is cell-based. Conditions: 20% C5-depleted normal human serum; read-out: IC50, inhibition of C3 fragment deposition on rabbit erythrocytes. The protocol: Rabbit erythrocytes, C5-depleted normal human serum (C5-Dpl NHS), gelatin veronal buffer (GVB) without Ca^++ and Mg (GVB^0), 100 mM MgCl2+100 mM EGTA (MgEGTA) were obtained from Complement Technology Inc. (Tyler, TX). GVB^0·MgEGTA was prepared by mixing GVB^0 and 100 mM MgEGTA in a 9:1 ratio. FITC-conjugated anti-C3c antibody (cat#ab4212) and Alexa Fluor® 647-conjugated anti human CD59 antibody (cat#: ab187769) were purchased from Abcam (Cambridge, MA).
Reactions were incubated at 37° C. for 15 minutes, the reactions were quenched by addition of EDTA at a final concentration of 20 mM. Cells were stained with a FITC-conjugated anti-C3c antibody at a dilution of 1:200 and C3 fragment deposition on the surface of rabbit erythrocytes was assessed by flow cytometry with BD Accuri C6 cytometer (BD Biosciences, San Jose, CA). Forward and side scatter parameters were used to gate intact erythrocytes. Controls included cells labeled with FITC-conjugated antibody isotype control. IC50 values from each experiment were determined by curve-fitting of experimental data (the % C3 fragment-positive cells at increasing concentrations of inhibitor) to the four-parameter sigmoidal dose-response equation using non-linear regression analysis (Prism Software, GraphPad, La Jolla, CA).
For orientation: Flow cytometry measures light scatter and fluorescence of single cells or particles in a stream.

Experiment [2] deals with C3 fragment deposition on artificial PNH cells. Description: C3 fragment deposition on artificial PNH cells (flow cytometry). Type of experiment: cell-based. The conditions noted are these: 32% acidified C5-depleted normal human serum; read-out: IC50, inhibition of C3 fragment deposition on artificial PNH cells. The protocol: C5-depleted normal human serum (C5-Dpl NHS), gelatin veronal buffer (GVB) without Ca^++ and Mg^++ (GVB^0), 100 mM MgCl2+100 mM EGTA (MgEGTA) were obtained from Complement Technology Inc. (Tyler, TX). GVB^0·MgEGTA was prepared by mixing GVB^0 and 100 mM MgEGTA in a 9:1 ratio. FITC-conjugated anti-C3c antibody (cat #ab4212) and Alexa Fluor® 647-conjugated anti human CD59 antibody (cat #:ab187769) were purchased from Abcam (Cambridge, MA). […] Ferrone, and F. Mercuriali, The Action of Two Sulfhydryl Compounds on Normal Human Red Cells. Relationship to Red Cells of Paroxysmal Nocturnal Hemoglobinuria. Blood, 1965. 25: p. 502-10). After AET treatment, artificial PNH erythrocytes were centrifuged, supernatant was aspirated and cells were thoroughly washed with phosphate buffered saline (PBS) 3 times followed by washing with GVB^0 buffer ([…]) for additional 3 times. […] C3 fragment deposition on the surface of the erythrocytes was assessed by flow cytometry with BD Accuri C6 cytometer (BD Biosciences, San Jose, CA). […] IC50 values from each experiment were determined by curve-fitting of experimental data (the % C3 fragment-positive cells at increasing concentrations of inhibitor) to the four-parameter sigmoidal dose-response equation using non-linear regression analysis (Prism Software, GraphPad, La Jolla, CA).

For the molecule `CC[C@H](C)[C@H](N)C(=O)N[C@H]1CSSC[C@@H](C(=O)N[C@H](C(N)=O)[C@@H](C)O)NC(=O)[C@H](CCCN=C(N)N)NC(=O)[C@H](Cc2cnc[nH]2)NC(=O)[C@H](Cc2cnc[nH]2)NC(=O)CNC(=O)[C@H](Cc2c[nH]c3ccccc23)NC(=O)[C@H](CC(=O)O)NC(=O)[C@H](CCC(N)=O)NC(=O)[C@H](C(C)C)NC(=O)[C@H](C(C)C)NC1=O` [Compstatin, reference compound], the “Inhibition (%) of CAP activity” value in the experiment with PNH erythrocytes (Experiment 2, Compstatin 0-300 μM) is reported as 0%; in the experiment with PNH erythrocytes (Experiment #1, Compstatin 0-300 μM), 0%. Besides, the “inhibition at the high end of the test concentration ranges” value in the experiment on PNH erythrocytes (single agent, PNH erythrocytes) was “complete inhibition”. Also, the IC50 was determined as 1.4 µM in experiment [1] and 2.2 µM in experiment [2].

B1: Eculizumab: monoclonal antibody complement inhibitor of the terminal component C5; only approved therapy for PNH (antibody, chains of the INN, looked up)
heavy: QVQLVQSGAEVKKPGASVKVSCKASGYIFSNYWIQWVRQAPGQGLEWMGEILPGSGSTEYTENFKDRVTMTRDTSTSTVYMELSSLRSEDTAVYYCARYFFGSSPNWYFDVWGQGTLVTVSSASTKGPSVFPLAPCSRSTSESTAALGCLVKDYFPEPVTVSWNSGALTSGVHTFPAVLQSSGLYSLSSVVTVPSSNFGTQTYTCNVDHKPSNTKVDKTVERKCCVECPPCPAPPVAGPSVFLFPPKPKDTLMISRTPEVTCVVVDVSQEDPEVQFNWYVDGVEVHNAKTKPREEQFNSTYRVVSVLTVLHQDWLNGKEYKCKVSNKGLPSSIEKTISKAKGQPREPQVYTLPPSQEEMTKNQVSLTCLVKGFYPSDIAVEWESNGQPENNYKTTPPVLDSDGSFFLYSRLTVDKSRWQEGNVFSCSVMHEALHNHYTQKSLSLSLG
light: DIQMTQSPSSLSASVGDRVTITCGASENIYGALNWYQQKPGKAPKLLIYGATNLADGVPSRFSGSGSGTDFTLTISSLQPEDFATYYCQNVLNTPLTFGQGTKVEIKRTVAAPSVFIFPPSDEQLKSGTASVVCLLNNFYPREAKVQWKVDNALQSGNSQESVTEQDSKDSTYSLSSTLTLSKADYEKHKVYACEVTHQGLSSPVTKSFNRGEC
On to B1, for which the “Inhibition (%) of CAP activity” value is reported as 0% with PNH erythrocytes (Experiment 2, Eculizumab 0-400 μg/mL) and 0% in the experiment with PNH erythrocytes (Experiment #1, Eculizumab 0-400 μg/mL).

By IC50 is commonly meant the midpoint of a concentration-inhibition curve.
